“And” between values parts separate entries of the source, which are not always exact repeats. Equal entries are not always repeated. The source made the active and inactive calls.
Key:
[1] = target: Protein disulfide-isomerase A6 (Homo sapiens, UniProt Q15084); assay: inhibitors of ERp5-mediated insulin aggregation, dose response, biochemical, turbidity, absorbance 650 nm, cherry-picked samples (AID 720566)
[2] = target: Photoreceptor-specific nuclear receptor (Homo sapiens, UniProt Q9Y5X4); assay type: functional;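 also: potency for compounds that break the NR2E3 corepressor complex and count as activators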
Chain of Photoreceptor-specific nuclear receptor (Q9Y5X4 whole entry): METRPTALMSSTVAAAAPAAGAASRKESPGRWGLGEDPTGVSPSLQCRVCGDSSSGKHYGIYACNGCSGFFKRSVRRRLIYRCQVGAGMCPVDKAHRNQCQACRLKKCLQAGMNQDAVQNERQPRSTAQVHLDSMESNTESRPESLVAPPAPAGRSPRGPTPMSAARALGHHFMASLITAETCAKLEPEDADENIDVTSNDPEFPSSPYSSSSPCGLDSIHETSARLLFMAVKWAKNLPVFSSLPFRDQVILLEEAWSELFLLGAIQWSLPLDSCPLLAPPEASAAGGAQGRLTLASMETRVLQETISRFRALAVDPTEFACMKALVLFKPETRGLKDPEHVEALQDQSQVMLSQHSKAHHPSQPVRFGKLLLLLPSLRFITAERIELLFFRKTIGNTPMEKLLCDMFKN

[3] = target: T1, Alkaline phosphatase, tissue-nonspecific isozyme (Homo sapiens, UniProt P05186); assay: TNAP enzyme activators, dose response, selectivity assay for mouse IAP activator project, biochemical, TNAP isozyme, mouse IAP uHTS hits (AID 488880); assay type: functional
T1 sequence (P05186 whole entry): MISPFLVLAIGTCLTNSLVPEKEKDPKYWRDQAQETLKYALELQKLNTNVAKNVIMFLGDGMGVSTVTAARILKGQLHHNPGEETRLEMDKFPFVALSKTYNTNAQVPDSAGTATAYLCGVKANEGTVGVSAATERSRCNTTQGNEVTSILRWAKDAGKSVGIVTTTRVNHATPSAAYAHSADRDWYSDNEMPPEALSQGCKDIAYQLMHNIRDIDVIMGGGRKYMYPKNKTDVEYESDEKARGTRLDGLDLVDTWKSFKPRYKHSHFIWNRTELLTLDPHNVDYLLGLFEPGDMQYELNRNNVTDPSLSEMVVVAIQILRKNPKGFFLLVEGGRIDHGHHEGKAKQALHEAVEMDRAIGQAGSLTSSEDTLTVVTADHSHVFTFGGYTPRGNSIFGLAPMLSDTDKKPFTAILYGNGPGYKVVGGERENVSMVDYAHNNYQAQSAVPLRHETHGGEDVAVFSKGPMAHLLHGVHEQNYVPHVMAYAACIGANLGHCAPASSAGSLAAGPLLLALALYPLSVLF

[4] = target: T2, Dual specificity protein phosphatase 3 (Homo sapiens, UniProt P51452); assay: VHR1 phosphatase inhibitors, primary screen, biochemical, absorbance, uHTS (AID 1654)
T2 sequence (P51452 whole entry): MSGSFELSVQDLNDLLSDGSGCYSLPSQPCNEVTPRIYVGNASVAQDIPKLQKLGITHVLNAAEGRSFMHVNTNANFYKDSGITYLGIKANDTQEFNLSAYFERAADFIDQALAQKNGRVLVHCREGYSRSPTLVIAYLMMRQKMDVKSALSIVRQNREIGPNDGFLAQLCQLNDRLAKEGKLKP

[5] = target: 26S proteasome non-ATPase regulatory subunit 14 (Homo sapiens, UniProt O00487); assay: inhibition of proteasome subunit RPN11 – biochemical, fluorescence polarization, uHTS hits, confirmation (AID 602368); assay type: functional
Chain of 26S proteasome non-ATPase regulatory subunit 14 (O00487 whole entry): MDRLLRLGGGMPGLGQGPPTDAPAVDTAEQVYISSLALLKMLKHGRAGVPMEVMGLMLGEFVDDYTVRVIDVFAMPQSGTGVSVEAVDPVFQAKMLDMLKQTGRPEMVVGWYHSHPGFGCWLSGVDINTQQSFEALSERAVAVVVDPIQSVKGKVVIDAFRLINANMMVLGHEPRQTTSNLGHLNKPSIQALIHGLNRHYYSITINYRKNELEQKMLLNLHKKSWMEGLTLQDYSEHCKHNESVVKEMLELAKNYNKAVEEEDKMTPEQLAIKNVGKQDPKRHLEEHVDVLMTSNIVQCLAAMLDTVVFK

[6] = target: T2, Dual specificity protein phosphatase 3; assay: SAR VHR1 Fluorescent Assay for In Vitro dose response studies Set 2. [Related pubchem assays (depositor defined):AID1654, AID1661, AID1878]; assay type: functional
[7] = target: T3, Dual specificity protein phosphatase 6 (Rattus norvegicus, UniProt Q64346); assay type: functional;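 also: confirmatory in vitro dose-response testing of MKP-3 inhibition; recombinant His-tagged MKP-3 made in E. coli BL21 with OMFP substrate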
T3 sequence (Q64346 whole entry): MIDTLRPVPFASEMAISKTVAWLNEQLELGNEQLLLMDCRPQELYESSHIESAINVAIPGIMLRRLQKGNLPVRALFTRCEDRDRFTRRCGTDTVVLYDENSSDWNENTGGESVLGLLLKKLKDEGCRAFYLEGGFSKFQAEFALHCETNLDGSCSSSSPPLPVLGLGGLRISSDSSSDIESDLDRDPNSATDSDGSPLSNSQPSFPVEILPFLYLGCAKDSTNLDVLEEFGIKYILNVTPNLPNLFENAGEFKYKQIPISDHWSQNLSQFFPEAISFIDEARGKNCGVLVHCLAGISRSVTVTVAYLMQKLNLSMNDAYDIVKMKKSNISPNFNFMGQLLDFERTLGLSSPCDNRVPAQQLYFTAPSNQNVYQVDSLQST

Chain of Protein disulfide-isomerase A6 (Q15084 whole entry): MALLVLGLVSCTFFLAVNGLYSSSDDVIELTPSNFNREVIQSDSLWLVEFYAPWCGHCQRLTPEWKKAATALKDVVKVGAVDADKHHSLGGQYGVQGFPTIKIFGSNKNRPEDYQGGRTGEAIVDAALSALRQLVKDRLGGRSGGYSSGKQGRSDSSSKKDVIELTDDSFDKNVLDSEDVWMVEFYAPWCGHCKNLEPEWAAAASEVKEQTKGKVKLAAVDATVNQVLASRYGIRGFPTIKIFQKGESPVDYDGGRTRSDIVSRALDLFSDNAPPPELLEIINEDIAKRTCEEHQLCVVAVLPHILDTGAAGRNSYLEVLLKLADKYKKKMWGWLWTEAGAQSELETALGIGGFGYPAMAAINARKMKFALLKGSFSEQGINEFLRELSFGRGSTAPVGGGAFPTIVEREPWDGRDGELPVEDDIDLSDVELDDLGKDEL

SMILES | AC50 [1] | IC50 [2] | EC50 [3] | IC50 [4] | IC50 [5] | IC50 [6] | IC50 [7]
COC(=O)c1cc(C)nc2c1C(=O)C(=O)C=C2N1CCOCC1 | 45.1 µM (active) | > 39.8 µM (not active) | – | – | – | – | –
NS(=O)(=O)c1cc(C(=O)NC2CCSc3ccccc32)ccc1Cl (configuration not stated) | – | – | 68.1 µM (active) | < 1.23 µM (inactive) | 0.763 µM (active) | > 100 µM (inactive) and 82.8 nM (active) | 2.96 µM (active) and > 100 µM (inactive)

— ChEMBL document CHEMBL1201862, “PubChem BioAssay data set” (2004)
